Test results taken from ChEMBL document CHEMBL1201862, “PubChem BioAssay data set” (2004).
One block for each molecule: values may come before it. Activity calls are given as the source filed them.

How the values were obtained:
Prothrombin = Prothrombin (Homo sapiens, UniProt P00734); assay: Thrombin 1536 HTS Dose Response Confirmation. [Related pubchem assays: 1046 (Thrombin 1536 HTS; hits were confirmed in this assay)]; type: functional
[1] = inhibitors of intracellular T. cruzi replication, confirmation, NIH3T3 host cells, beta-gal luminescence (AID 2044); type: functional, cell-based;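 further: intracellular parasites grown in NIH/3T3 mouse fibroblasts as host cells; luminescent beta-galactosidase reporter signal from transgenic T. cruzi replicating inside host cells; inhibitors lower the luminescence signal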
[2] = cytotoxicity toward NIH3T3 fibroblasts, dose response, counter-screen, cell-based, ATP luminescence, mouse fibroblasts (AID 2010); type: functional;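 further: cells exposed to compound for about 90 hours before reading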
Estrogen receptor = target: T1, Estrogen receptor (Homo sapiens, UniProt P03372);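 further: potency for inhibiting coactivator peptide recruitment to the receptor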
T1 sequence (P03372 whole entry): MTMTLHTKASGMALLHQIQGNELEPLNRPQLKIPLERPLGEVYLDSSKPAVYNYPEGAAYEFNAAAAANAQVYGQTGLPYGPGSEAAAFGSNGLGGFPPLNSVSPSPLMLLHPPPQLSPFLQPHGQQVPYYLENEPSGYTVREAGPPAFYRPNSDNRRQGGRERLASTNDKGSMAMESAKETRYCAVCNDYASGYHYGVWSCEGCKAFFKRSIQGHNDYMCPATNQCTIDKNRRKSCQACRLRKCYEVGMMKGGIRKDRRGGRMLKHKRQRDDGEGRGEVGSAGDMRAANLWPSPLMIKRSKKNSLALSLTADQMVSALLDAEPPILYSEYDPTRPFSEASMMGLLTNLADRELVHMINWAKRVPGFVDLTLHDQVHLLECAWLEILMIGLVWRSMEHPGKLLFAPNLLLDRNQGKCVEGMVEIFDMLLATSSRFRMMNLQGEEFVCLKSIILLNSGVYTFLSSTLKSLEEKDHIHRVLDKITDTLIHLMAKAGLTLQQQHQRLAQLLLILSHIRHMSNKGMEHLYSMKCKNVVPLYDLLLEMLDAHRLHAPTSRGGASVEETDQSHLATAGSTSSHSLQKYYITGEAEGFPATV

[3] = target: T2, Carboxy-terminal domain RNA polymerase II polypeptide A small phosphatase 1 (Homo sapiens, UniProt Q9GZU7); assay: inhibitors of CTDSP1, concentration-response testing, biochemical assay, absorbance-based, actives from ultra-high-throughput screening (AID 540297); type: functional
T2 sequence (Q9GZU7 whole entry): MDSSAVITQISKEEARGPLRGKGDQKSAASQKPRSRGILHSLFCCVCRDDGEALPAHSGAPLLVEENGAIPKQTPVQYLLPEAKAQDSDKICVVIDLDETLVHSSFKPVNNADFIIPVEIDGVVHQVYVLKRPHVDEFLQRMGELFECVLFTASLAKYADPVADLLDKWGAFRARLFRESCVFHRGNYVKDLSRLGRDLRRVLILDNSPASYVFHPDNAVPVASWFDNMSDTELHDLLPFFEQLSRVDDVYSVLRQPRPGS

[4] = target: DNA dC->dU-editing enzyme APOBEC-3G (Homo sapiens, UniProt Q9HC16); assay: Dose Response confirmation of small molecule APOBEC3G DNA Deaminase Inhibitors via a fluorescence-based single-stranded DNA deaminase assay. [Related pubchem assays (depositor defined):AID493012, AID493028]; type: functional
[5] = target: Glyceraldehyde-3-phosphate dehydrogenase (Homo sapiens, UniProt P04406)
[6] = cytotoxicity in HEK-293T cells, dose response, cytotoxicity control for TCR NF-kB inhibitor project, luminescence, T-cell screen hits (AID 489026); type: functional, cell-based;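 further: cells exposed to compound about 14 hours before the viability readout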
[7] = NIH-3T3 fibroblast cytotoxicity, dose response, cytotoxicity control, cell-based, fluorescence, Alamar Blue, secondary assay (AID 2327); type: functional;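 further: NIH-3T3 mouse fibroblasts cultured with fluconazole at 8 µg/mL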
HEK293 [8] = assay: NOD1 signaling inhibitors, primary screen, cell-based, luminescence, uHTS (AID 1578); type: functional; conditions: Homo sapiens
HEK293 [9] = assay: cells; type: functional, cell-based; conditions: Homo sapiens
[10] = C. albicans growth with fluconazole, confirmation, fluorescence, retest (AID 2467); type: functional, cell-based
HEK293 [11] = assay: cells; type: functional, cell-based; conditions: Homo sapiens; remark: listed apart in the source
[12] = target: Nucleotide-binding oligomerization domain-containing protein 2 (Homo sapiens, UniProt Q9HC29); assay: NOD2 signaling inhibitors, cell-based, luminescence, uHTS, HEK293 (AID 1566); type: functional
HEK293 [13] = assay: NOD2 signaling inhibitors in MDP-stimulated cells, cell-based, uHTS, luminescence (AID 2001); type: functional; conditions: Homo sapiens
HEK293 [14] = assay: cells; type: functional, cell-based; conditions: Homo sapiens; remark: listed apart in the source
[15] = target: T3, Microphthalmia-associated transcription factor (Homo sapiens, UniProt O75030); assay: TRPM1 promoter luciferase signal decrease, dose response, MITF inhibitor project, cell-based, SK-MEL-5, cherry-picked, set 3 (AID 493073); type: functional
T3 sequence (O75030 whole entry): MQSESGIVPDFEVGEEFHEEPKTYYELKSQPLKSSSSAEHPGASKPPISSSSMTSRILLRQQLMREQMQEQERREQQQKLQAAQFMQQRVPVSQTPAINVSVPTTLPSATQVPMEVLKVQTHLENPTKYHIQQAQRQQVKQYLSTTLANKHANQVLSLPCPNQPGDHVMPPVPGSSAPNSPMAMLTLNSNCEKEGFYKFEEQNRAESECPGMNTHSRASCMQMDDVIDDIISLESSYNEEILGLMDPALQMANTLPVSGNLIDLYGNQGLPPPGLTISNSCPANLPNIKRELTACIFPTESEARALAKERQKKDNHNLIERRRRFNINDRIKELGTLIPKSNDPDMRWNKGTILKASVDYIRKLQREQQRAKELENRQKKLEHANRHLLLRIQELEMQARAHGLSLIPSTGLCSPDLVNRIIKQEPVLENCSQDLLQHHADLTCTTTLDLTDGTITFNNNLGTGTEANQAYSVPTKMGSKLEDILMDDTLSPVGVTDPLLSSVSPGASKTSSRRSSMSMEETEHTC

Nucleotide-binding oligomerization domain-containing protein 2, sequence (Q9HC29 whole entry, the tested form may be a part): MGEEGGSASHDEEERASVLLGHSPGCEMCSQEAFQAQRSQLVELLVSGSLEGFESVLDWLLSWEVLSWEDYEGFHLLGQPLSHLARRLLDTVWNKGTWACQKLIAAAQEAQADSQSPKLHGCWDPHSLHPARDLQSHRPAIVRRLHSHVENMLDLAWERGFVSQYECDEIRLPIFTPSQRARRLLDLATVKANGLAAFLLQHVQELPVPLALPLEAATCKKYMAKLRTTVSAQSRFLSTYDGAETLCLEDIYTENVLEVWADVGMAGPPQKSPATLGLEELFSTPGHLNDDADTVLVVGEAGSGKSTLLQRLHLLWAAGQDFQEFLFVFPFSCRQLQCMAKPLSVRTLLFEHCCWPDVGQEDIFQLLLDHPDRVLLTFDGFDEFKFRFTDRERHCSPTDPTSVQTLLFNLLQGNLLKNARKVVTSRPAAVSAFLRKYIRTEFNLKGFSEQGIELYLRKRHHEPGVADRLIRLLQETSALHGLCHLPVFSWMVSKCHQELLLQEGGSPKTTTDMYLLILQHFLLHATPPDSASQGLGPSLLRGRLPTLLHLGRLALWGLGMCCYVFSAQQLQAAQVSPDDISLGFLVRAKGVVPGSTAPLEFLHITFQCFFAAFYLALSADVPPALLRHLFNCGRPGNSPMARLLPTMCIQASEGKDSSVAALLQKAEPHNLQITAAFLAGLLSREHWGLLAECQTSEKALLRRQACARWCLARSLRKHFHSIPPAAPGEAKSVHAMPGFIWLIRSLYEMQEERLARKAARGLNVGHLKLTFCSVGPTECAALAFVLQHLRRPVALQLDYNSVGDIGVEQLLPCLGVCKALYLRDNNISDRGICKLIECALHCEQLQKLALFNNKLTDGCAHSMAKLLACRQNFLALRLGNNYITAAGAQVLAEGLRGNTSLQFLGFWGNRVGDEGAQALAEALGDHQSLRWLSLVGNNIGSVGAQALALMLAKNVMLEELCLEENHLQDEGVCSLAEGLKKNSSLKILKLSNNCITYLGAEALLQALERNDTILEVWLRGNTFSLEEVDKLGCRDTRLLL
Glyceraldehyde-3-phosphate dehydrogenase, sequence (P04406 whole entry): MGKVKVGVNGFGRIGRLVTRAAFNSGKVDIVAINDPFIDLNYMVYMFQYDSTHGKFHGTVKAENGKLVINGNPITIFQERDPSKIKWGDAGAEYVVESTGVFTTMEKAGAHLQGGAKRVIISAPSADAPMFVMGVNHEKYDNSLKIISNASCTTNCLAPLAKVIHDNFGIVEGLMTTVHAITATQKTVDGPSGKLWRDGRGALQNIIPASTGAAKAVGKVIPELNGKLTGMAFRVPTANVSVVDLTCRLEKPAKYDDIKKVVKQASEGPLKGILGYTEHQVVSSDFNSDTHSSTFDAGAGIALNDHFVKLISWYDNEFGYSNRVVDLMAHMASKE
DNA dC->dU-editing enzyme APOBEC-3G, sequence (Q9HC16 whole entry): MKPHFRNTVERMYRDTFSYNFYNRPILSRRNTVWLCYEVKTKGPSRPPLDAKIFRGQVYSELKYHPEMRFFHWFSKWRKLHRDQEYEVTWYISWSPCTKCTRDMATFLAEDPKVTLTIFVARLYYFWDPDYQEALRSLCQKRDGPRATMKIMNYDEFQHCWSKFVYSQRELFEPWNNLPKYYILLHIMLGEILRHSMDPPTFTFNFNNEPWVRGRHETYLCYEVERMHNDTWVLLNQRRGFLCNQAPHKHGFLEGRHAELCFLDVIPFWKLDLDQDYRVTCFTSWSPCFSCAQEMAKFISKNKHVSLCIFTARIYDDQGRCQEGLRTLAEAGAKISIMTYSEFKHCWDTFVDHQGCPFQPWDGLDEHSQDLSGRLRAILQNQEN

- IC50 (Prothrombin): > 50 µM (not active)
SMILES: CC(=O)c1ccc(S(=O)(=O)Nc2ccc(-c3cn4c(n3)SCC4)cc2)cc1

SMILES: CN1CCc2c(sc3c2c(=O)n(-c2ccccc2)c2nnc(SCc4ccccc4)n32)C1
- EC50 [1]: < 0.1 µM (active)
- EC50 [2]: > 60 µM (not active)
- EC50 (cells): 0.015 µM (active)

- IC50 (Estrogen receptor): 25.2 µM (active)
- IC50 [3]: 17.8 µM (active)
SMILES: Cn1c(SCc2cc(=O)n3cc(Br)ccc3n2)nnc1C1COc2ccccc2O1 (stereo not drawn)

SMILES: O=C(Nc1cc(S(=O)(=O)Nc2ccc(Cl)cc2)ccc1O)c1ccc(S(=O)(=O)N2CCCCCC2)cc1
- IC50 [4]: 73.7 µM (active)
- IC50 [3]: 2.73 µM (active)

- IC50 [5]: > 100 µM (not active)
SMILES: COc1cc(/C=C2/SC(=S)NC2=O)cc(Cl)c1OCc1cccc2ccccc12

SMILES: COc1cc(C(=O)OCCc2cc3ccccc3c(=O)o2)cc(OC)c1OC
- IC50 [6]: 69.5 µM (inactive)

- IC50 (Estrogen receptor): 7.11 µM (active)
SMILES: CS(=O)(=O)c1ccc2nc(NC(=O)CCC(=O)c3cccs3)sc2c1

SMILES: O=c1cc(CN2CCN(Cc3ccccc3)CC2)c2ccc(O)cc2o1
- EC50 [1]: < 0.1 µM (active)
- EC50 [2]: > 60 µM (not active)
- EC50 (cells): 0.038 µM (active)

SMILES: O=C(CCl)N1c2ccccc2SCC1c1ccccc1 (stereo not drawn)
- EC50 [7]: 7.57 µM (inconclusive)
- EC50 (HEK293 [8]): 11.5 µM (active)
- IC50 (HEK293 [9]): 5.49 µM (active)
- EC50 [10]: > 38 µM (not active)
- IC50 (HEK293 [11]): > 20 µM (inactive)
- EC50 [12]: > 20 µM (inactive)
- IC50 (HEK293 [13]): 8.37 µM (active)
- IC50 (HEK293 [14]): > 20 µM (inactive)
- AC50 [15]: 4.2 µM (active)
